Experimental data from ChEMBL document CHEMBL1681723, “Phellinstatin, a new inhibitor of enoyl-ACP reductase produced by the medicinal fungus Phellinus linteus” (Bioorg Med Chem Lett, 2011).
Converted amounts (≈) assume the structure as drawn. The source made the active and inactive calls. The calls are words filed in the database; no cut-off is given here.

Columns and labels:
[1] = target: T1, Enoyl-[acyl-carrier-protein] reductase [NADPH] FabI (Staphylococcus aureus, UniProt Q6GI75); assay: (§1) Inhibition of Staphylococcus aureus enoyl-ACP reductase assessed as increase of NADPH level
T1 sequence (Q6GI75 whole entry): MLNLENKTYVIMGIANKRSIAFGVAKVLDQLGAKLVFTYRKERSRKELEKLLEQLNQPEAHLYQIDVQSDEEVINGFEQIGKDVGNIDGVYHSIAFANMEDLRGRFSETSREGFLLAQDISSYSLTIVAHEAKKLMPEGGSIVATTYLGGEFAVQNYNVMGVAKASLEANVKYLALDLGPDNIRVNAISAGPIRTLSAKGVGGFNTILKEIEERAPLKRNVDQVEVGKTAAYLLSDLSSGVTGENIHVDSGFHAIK

[2] = tested on: Staphylococcus aureus; assay: Antibacterial activity against Staphylococcus aureus RN4220 at 128 ug/ml; assay type: functional, organism-based
[3] = tested on: Staphylococcus aureus; assay: Antibacterial activity against methicillin-resistant Staphylococcus aureus CCARM 3167 at 128 ug/ml; assay type: functional, organism-based
[4] = target: T2, Enoyl-[acyl-carrier-protein] reductase [NADPH] FabI (Staphylococcus aureus) (UniProt Q6GI75); assay: as §1
T2 sequence (whole entry): T1 sequence (Q6GI75 whole entry)

[5] = tested on: Staphylococcus aureus; assay: Antibacterial activity against methicillin-resistant Staphylococcus aureus CCARM 3167; assay type: functional
[6] = tested on: Staphylococcus aureus; assay: Antibacterial activity against Staphylococcus aureus RN4220; assay type: functional

SMILES	IC50 [1]	Activity [2]	Activity [3]	inhibition [4]	MIC [5]	MIC [6]
O=c1cc(O)cc([C@H]2c3c(cc(/C=C/c4ccc(O)c(O)c4)oc3=O)O[C@@H]2c2ccc(O)c(O)c2)o1 [HYPHOLOMINE B]	15.3 µM	inactive	inactive			
O=c1cc(O)cc([C@H]2c3c(cc(/C=C/c4cc(O)c(O)cc4-c4c(O)cc(/C=C/c5ccc(O)c(O)c5)oc4=O)oc3=O)O[C@@H]2c2ccc(O)c(O)c2)o1 [PHELLINSTATIN]	6 µM			Dose-dependent effect	128 µg/mL (≈ 174 µM)	128 µg/mL (≈ 174 µM)
